Test results from ChEMBL document CHEMBL1143311, “Structure-activity relationship and studies on the molecular mechanism of leishmanicidal N,C-coupled arylisoquinolinium salts” (J Med Chem, 2009).
Blank lines part the entries; values can stand above or below the compound they belong to. The source made the active and inactive calls. No cut-off for these calls is given here.

What was measured:
Leishmania major [1] = assay: Antileishmanial activity against Leishmania major MHOM/IL/81/FE/BNI promastigotes by alamar blue assay; assay type: functional, organism-based; details: Leishmania major
[2] = Antiproliferative activity against mouse J774.1 cells after 48 hrs by alamar blue assay; assay type: cell-based; details: Mus musculus, J774.1, 48 h
[3] = Selectivity index, ratio of IC50 for mouse J774.1 cells to IC50 for Leishmania major MHOM/IL/81/FE/BNI promastigotes; assay type: toxicity; details: J774.1 cells, read-out: Ratio IC50
[4] = Cytotoxicity against BALB/c mouse DC after 48 hrs by alamar blue assay
[5] = Cytotoxicity against mouse NIH/3T3 after 48 hrs by alamar blue assay; assay type: cell-based; details: NIH3T3, 48 h
[6] = Cytotoxicity against BALB/c mouse peritoneal macrophages after 48 hrs by alamar blue assay; assay type: cell-based; details: Macrophage
Leishmania major [7] = assay: Antileishmanial activity against Leishmania major MHOM/IL/81/FE/BNI promastigotes infected in BALB/c mouse peritoneal macrophages assessed as decrease in infection rate after 48 hrs by fluorescence microscopy; assay type: functional, organism-based
[8] = Ratio of IC50 for BALB/c mouse peritoneal macrophages to EC50 for Leishmania major MHOM/IL/81/FE/BNI promastigotes
Albumin = Albumin (Bos taurus, UniProt P02769); assay: Binding affinity to bovine serum albumin by ultrafiltration method; assay type: ADME; details: cattle, bovine serum albumin; read-out: PPB (converted)
Albumin, sequence (P02769 whole entry): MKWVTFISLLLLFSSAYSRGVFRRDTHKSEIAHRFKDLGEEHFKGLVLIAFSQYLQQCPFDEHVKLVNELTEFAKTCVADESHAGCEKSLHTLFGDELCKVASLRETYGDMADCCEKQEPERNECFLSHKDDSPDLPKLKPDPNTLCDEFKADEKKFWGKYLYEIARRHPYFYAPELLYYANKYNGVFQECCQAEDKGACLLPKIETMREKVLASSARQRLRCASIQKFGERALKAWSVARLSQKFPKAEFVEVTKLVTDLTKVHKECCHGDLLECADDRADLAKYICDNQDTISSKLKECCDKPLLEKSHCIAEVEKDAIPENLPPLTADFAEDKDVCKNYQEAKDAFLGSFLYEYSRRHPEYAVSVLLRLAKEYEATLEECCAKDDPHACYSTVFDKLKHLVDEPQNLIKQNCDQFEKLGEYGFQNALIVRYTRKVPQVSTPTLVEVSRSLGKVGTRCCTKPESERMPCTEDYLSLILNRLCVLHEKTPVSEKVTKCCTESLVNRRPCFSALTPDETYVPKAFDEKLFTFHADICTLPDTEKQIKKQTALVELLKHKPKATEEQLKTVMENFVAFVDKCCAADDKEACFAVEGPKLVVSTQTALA

Macrophage [9] = assay: Reduction of IL6 production in LPS-stimulated BALB/c mouse peritoneal macrophages infected with Leishmania major MHOM/IL/81/FE/BNI promastigotes at 3 uM after 24 hrs by sandwich ELISA; assay type: functional, cell-based
Macrophage [10] = assay: Reduction of IL6 production in IFN-gamma-stimulated BALB/c mouse peritoneal macrophages infected with Leishmania major MHOM/IL/81/FE/BNI promastigotes at 3 uM after 24 hrs by sandwich ELISA; assay type: functional, cell-based
Macrophage [11] = assay: Reduction of TNFalpha production in IFN-gamma-stimulated BALB/c mouse peritoneal macrophages infected with Leishmania major MHOM/IL/81/FE/BNI promastigotes at 3 uM after 24 hrs by sandwich ELISA; assay type: functional, cell-based
Macrophage [12] = assay: Decrease in IL10 secretion in IFN-gamma-stimulated BALB/c mouse peritoneal macrophages infected with Leishmania major MHOM/IL/81/FE/BNI promastigotes at 3 uM after 24 hrs by sandwich ELISA; assay type: functional, cell-based
Macrophage [13] = assay: Decrease in IL10 secretion in LPS-stimulated BALB/c mouse peritoneal macrophages infected with Leishmania major MHOM/IL/81/FE/BNI promastigotes at 3 uM after 24 hrs by sandwich ELISA; assay type: functional, cell-based
Macrophage [14] = assay: Increase in nitric oxide production in LPS-stimulated BALB/c mouse peritoneal macrophages infected with Leishmania major MHOM/IL/81/FE/BNI promastigotes at 3 uM after 48 hrs by […]; assay type: functional, cell-based
Cytochrome P450 2D6 = Cytochrome P450 2D6 (Homo sapiens, UniProt P10635); assay: Inhibition of human CYP2D6 at 1 to 100 uM by LC/ESI-MS analysis; assay type: ADME
Cytochrome P450 2D6, sequence (P10635 whole entry): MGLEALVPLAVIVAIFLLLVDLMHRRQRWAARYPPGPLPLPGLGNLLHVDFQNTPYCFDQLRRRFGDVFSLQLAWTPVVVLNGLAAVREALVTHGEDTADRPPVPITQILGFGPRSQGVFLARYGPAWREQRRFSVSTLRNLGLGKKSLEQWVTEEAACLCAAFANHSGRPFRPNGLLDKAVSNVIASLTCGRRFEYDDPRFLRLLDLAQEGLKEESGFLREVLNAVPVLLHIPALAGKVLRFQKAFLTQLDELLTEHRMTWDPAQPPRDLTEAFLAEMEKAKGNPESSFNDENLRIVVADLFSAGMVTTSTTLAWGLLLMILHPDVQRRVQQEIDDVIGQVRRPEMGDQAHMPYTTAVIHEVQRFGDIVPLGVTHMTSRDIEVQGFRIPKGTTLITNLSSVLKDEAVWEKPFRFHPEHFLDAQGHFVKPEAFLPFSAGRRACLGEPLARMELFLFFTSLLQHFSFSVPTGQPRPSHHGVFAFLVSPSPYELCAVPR

Cytochrome P450 2C9 = Cytochrome P450 2C9 (Homo sapiens, UniProt P11712); assay: Inhibition of human CYP2C9 at 100 uM by LC/ESI-MS analysis; assay type: ADME
Cytochrome P450 2C9, sequence (P11712 whole entry): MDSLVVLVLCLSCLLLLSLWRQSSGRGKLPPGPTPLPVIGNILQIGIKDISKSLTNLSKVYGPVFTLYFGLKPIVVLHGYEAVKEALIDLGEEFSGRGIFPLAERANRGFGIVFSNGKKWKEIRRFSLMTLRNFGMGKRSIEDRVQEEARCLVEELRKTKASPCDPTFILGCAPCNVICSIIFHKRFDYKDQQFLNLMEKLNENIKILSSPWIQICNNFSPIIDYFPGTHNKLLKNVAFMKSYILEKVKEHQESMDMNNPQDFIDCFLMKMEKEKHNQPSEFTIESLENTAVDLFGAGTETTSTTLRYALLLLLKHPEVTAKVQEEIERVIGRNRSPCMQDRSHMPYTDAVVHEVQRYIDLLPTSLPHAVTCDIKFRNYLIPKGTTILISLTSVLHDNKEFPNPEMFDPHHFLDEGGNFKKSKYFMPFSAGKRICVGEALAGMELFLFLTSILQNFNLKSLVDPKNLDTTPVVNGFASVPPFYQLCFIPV

Cytochrome P450 2C19 = Cytochrome P450 2C19 (Homo sapiens, UniProt P33261); assay: Inhibition of human CYP2C19 at 100 uM by LC/ESI-MS analysis; assay type: ADME
Cytochrome P450 2C19, sequence (P33261 whole entry): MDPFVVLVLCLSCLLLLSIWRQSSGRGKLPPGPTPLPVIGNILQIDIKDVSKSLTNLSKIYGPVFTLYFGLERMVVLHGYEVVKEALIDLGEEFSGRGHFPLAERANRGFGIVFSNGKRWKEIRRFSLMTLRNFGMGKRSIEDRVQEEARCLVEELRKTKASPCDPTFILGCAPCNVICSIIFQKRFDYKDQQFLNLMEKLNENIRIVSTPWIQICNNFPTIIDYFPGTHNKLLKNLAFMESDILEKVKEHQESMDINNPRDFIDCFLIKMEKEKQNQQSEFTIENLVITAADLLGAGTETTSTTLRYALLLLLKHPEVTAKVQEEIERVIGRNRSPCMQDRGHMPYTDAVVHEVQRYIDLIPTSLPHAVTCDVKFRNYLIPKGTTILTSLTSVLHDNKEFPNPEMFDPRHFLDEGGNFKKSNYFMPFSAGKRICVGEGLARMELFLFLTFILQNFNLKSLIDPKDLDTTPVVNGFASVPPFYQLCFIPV

Cytochrome P450 3A4 = Cytochrome P450 3A4 (Homo sapiens, UniProt P08684); assay: Inhibition of human CYP3A4 at 100 uM by LC/ESI-MS analysis; assay type: ADME
Cytochrome P450 3A4, sequence (P08684 whole entry): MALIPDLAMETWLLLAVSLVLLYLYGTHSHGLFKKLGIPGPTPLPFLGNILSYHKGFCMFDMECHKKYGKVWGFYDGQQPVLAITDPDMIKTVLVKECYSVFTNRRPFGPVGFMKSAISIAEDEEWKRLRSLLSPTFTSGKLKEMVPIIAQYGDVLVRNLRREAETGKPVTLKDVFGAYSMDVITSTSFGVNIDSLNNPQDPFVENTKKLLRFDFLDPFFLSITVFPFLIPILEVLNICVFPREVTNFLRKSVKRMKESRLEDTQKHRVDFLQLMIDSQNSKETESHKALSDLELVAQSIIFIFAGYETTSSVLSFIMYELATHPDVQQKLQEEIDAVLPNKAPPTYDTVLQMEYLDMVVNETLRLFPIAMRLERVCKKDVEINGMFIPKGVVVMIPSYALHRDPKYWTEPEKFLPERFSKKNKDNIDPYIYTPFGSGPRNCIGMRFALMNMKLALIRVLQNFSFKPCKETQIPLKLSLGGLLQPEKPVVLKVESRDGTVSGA

Leishmania major [15] = assay: Antileishmanial activity against Leishmania major MHOM/IL/81/FE/BNI promastigotes infected in BALB/c mouse peritoneal macrophages assessed as decrease in infection rate after 48 hrs by fluorescence microscopy in presence of interferon-gamma; assay type: functional, organism-based

Structure (SMILES): COc1cc(OC)c2c(C)[n+](-c3ccc(C#N)cc3)c(C)cc2c1
- IC50 (Leishmania major [1]): > 100 µM
- IC50 [2]: > 100 µM

Structure (SMILES): COc1cc(OC)c2c(C)[n+](-c3ccc(C)cc3C)c(C)cc2c1
- IC50 (Leishmania major [1]): 3.28 µM
- IC50 [2]: 4.07 µM
- selectivity ratio [3]: 1.24

Structure (SMILES): COc1cc(OC)c2c(C)[n+](-c3ccc(O)cc3)c(C)cc2c1
- IC50 (Leishmania major [1]): 15.9 µM
- IC50 [2]: > 100 µM

- EC50 (Leishmania major [7]): 0.241 µM
- fraction unbound (Albumin): 0.538
- Activity (Cytochrome P450 2D6): Not Active
- Activity (Cytochrome P450 2C9): Active
- Activity (Cytochrome P450 2C19): Active
- Activity (Cytochrome P450 3A4): Active
Structure (SMILES): COc1cc(OC)c2c(C)[n+](-c3c(C)cccc3C)c(C)cc2c1.F[B-](F)(F)F
- IC50 (Leishmania major [1]): 3.49 µM
- IC50 [2]: 27.3 µM
- selectivity ratio [3]: 7.82
- IC50 [4]: 8.76 µM
- IC50 [5]: 37.6 µM
- IC50 [6]: 9.67 µM
- Ratio IC50/EC50 [8]: 40
- Activity (Macrophage [9]): Active
- Activity (Macrophage [10]): Active
- Activity (Macrophage [11]): Active
- Activity (Macrophage [12]): Active
- Activity (Macrophage [13]): Active
- Activity (Macrophage [14]): inactive
- Activity (Leishmania major [15]): Active

Structure (SMILES): COc1cc(OC)c2c(C)[n+](-c3cccc(C)c3C)c(C)cc2c1
- IC50 (Leishmania major [1]): 11.6 µM
- IC50 [2]: 10.5 µM
- selectivity ratio [3]: < 1

Structure (SMILES): COc1cc(OC)c2c(C)[n+](-c3ccc(Br)cc3)c(C)cc2c1
- IC50 (Leishmania major [1]): 19.7 µM
- IC50 [2]: 2.97 µM
- selectivity ratio [3]: < 1

Structure (SMILES): COc1cc2c(c(OC)c1)C(C)N(c1ccc(OC)c3c(OC)cc(C)cc13)[C@H](C)C2 (mixture of isomers)
- IC50 (Leishmania major [1]): 66.7 µM
- IC50 [2]: > 100 µM

- EC50 (Leishmania major [7]): 0.075 µM
Structure (SMILES): C[C@@H]1[C@H](O)[C@@H](C)/C=C/C=C/C=C/C=C/C=C/C=C/C=C/[C@H](O[C@@H]2O[C@H](C)[C@@H](O)[C@H](N)[C@@H]2O)C[C@@H]2O[C@](O)(C[C@@H](O)C[C@@H](O)[C@H](O)CC[C@@H](O)C[C@@H](O)CC(=O)O[C@H]1C)C[C@H](O)[C@H]2C(=O)O [AMPHOTERICIN B]
- IC50 (Leishmania major [1]): 5.07 µM
- IC50 [2]: > 70 µM
- selectivity ratio [3]: > 14
- IC50 [6]: > 70 µM
- Ratio IC50/EC50 [8]: >1000

Structure (SMILES): COc1cc(OC)c2c(C)[n+](-c3ccc(C(C)(C)C)cc3)c(C)cc2c1
- IC50 (Leishmania major [1]): 2.67 µM
- IC50 [2]: 4.28 µM
- selectivity ratio [3]: 1.6

Structure (SMILES): COc1cc(OC)c2c(C)[n+](-c3cccc4ccccc34)c(C)cc2c1
- IC50 (Leishmania major [1]): 1.63 µM
- IC50 [2]: 4.29 µM
- selectivity ratio [3]: 2.63

Structure (SMILES): COc1cc(OC)c2c(C)[n+](-c3ccc(OC(C)=O)cc3)c(C)cc2c1
- IC50 (Leishmania major [1]): > 100 µM
- IC50 [2]: > 100 µM

Structure (SMILES): CCCCc1ccc(-[n+]2c(C)cc3cc(OC)cc(OC)c3c2C)cc1
- IC50 (Leishmania major [1]): 2.69 µM
- IC50 [2]: 4.47 µM
- selectivity ratio [3]: < 1

Structure (SMILES): COc1cc2c(c(OC)c1)C(C)N(c1cccc3ccccc13)C(C)C2 (centres undefined)
- IC50 (Leishmania major [1]): 65.6 µM
- IC50 [2]: > 100 µM

Structure (SMILES): COc1cc2c(c(OC)c1)C(C)N(c1ccc(C(C)C)cc1)C(C)C2 (centres undefined)
- IC50 (Leishmania major [1]): 49.9 µM
- IC50 [2]: 74.7 µM

- Activity (Cytochrome P450 2C9): Active
- Activity (Cytochrome P450 2C19): Active
Structure (SMILES): C=C[C@H]1C[N@@]2CC[C@H]1C[C@@H]2[C@@H](O)c1ccnc2ccc(OC)cc12 [QUINIDINE]

- fraction unbound (Albumin): 0.475
Structure (SMILES): CCc1ccc(-[n+]2c(C)cc3cc(OC)cc(OC)c3c2C)cc1
- IC50 (Leishmania major [1]): 5.53 µM
- IC50 [2]: 4.5 µM
- selectivity ratio [3]: < 1

Structure (SMILES): COc1cc2c(c(OC)c1)C(C)N(c1ccc(OC)c3c(OC)cc(C)cc13)[C@@H](C)C2 (mixture of isomers)
- IC50 (Leishmania major [1]): 64.8 µM
- IC50 [2]: > 100 µM
